From patent publication US7629318B2, “Immunosuppressant compounds, methods and uses related thereto” (priority 2002, dated 2009)
Square brackets hold non-standard residues; d marks the D form. Peptide text beside a SMILES is read from it. * marks the point of attachment. Gly(1-amidinopiperidin-4-yl) = N=C(N)N1CCC([C@H](N)C(=O)O)CC1; Tetrahydroisoquinolin(2-yl) = c1ccc2c(c1)CCN(*)C2; Tic = O=C(O)[C@@H]1Cc2ccccc2CN1; Cha = N[C@@H](CC1CCCCC1)C(=O)O; X4 = OCCOCCN(CCc1ccccc1)*; Nle = CCCC[C@H](N)C(=O)O; X2 = OCCOCCN(Cc1ccccc1)*; X5 = OCCN(Cc1ccccc1)*

How the values were obtained:
[1] = system: T-cell proliferation, DR14-LN; conditions: for IC50: read-out: Immunsupressive assays DR14-LN (IC50); for Immunsupressive assays DR14-LN (Max) % Inhibition: maximal inhibition
[2] = target: Cathepsin D (EC 3.4.23.5 from bovine spleen) (Bos taurus, UniProt P80209)
Experimental: The stability of the peptidomimetic compounds towards lysosomal degradation was examined by incubation with Cathepsin B1 (EC 3.4.22.1 from bovine spleen; Sigma-Aldrich, Taufkirchen; dissolved at 10000 U/l in ddH2O) and D (EC 3.4.23.5 from bovine spleen; Sigma-Aldrich, Taufkirchen; dissolved at 10000 U/l in ddH2O) for four hours at 37° C. using a compound concentration of 50 μM and an enzyme/substrate ratio of 0.4 U/μmol. The samples contained 25 ppm 4-isopropyl benzyl alcohol (IPBA; Sigma-Aldrich, Taufkirchen) as internal standard.
Assay buffer was prepared by adding 35 μl of a 1% IPBA in DMSO solution and 28 μl of a 10000 U/l Cathepsin B1 or Cathepsin D stock solution to 14 ml of 100 mM sodium acetate, 1 mM EDTA, 1 mM DTT, pH 5.00 or 100 mM sodium acetate, pH 4.50, respectively. 8.8 μl of a 5 mM (or 4.4 μl of a 10 mM) compound stock solution (in 10% DMSO/water) were placed into a 1.5 ml Eppendorf tube. The reaction was started by adding 875 μl fully supplemented assay buffer to each tube, whirlmixing and incubation at 37° C. At 0 and 4 hours 400 μl samples were taken and the enzyme was inactivated by addition of 40 μl […] TFA aq. The samples were kept frozen at −20° C. until analysis by RP-HPLC (200 μl injection volume; Nucleosil 100-5 C18, 12.5×4.6 cm; Gradient: 20-50% acetonitrile in 30 min).
Compounds co-eluting with the internal standard during RP-HPLC analysis were tested without the standard as Example 16.

[3] = Stability of compounds in mouse blood plasma; format: in vitro ADME
Experimental: (§1) The stability of the peptidomimetic compounds was determined in rat (Charles River Laboratories, Sulzfeld), mouse (Charles River Laboratories, Sulzfeld) and human (Bayerisches Rotes Kreuz, München) blood plasma (E. R. Garrett and M. R. Gardner, J Pharmaceutical Sciences 71 (1982) 14-25).
(§2) Compound stock solutions were diluted into blood plasma to give a final compound concentration of 5 μM and the mixtures were incubated at 37° C. At 0, 6 and 24 hours 1 ml samples were drawn and the plasma proteins were precipitated by the addition of 3 ml acetonitrile p.a. and whirlmixing. The precipitate was pelleted by centrifugation at 2000 g for 5 minutes. The supernatant was evaporated off to dryness and the residue was reconstituted in 400 μl 50% acetonitrile, 0.1% TFA in water.
(§3) PBS controls were prepared for unstable compounds accordingly.

[4] = target: DR4Dw14 (DRA1*0101 DRB1*0404) (Homo sapiens, UniProt P01903+P01911, A100R/A169T/F76Y/I96L/K127E/L162R/M171V/N62H/P40V/Q125Y/R42H/S133A/S149N/S66Y/V209L/W38E); assay: Competitive binding to MHC-II protein DR4Dw14; conditions: 0404; read-out: Protein binding IC50 (nM) 0404
Experimental: (§4) Interaction mixtures lacking the peptidomimetic compound and both peptide mimetic compound and MHC-II were used as positive and negative controls, respectively. All interaction mixtures were set up in duplicates and were incubated for 16 hours at room temperature.
(§5) After washing with PBS, 60 μl of the MHC-II-compound interaction mixtures were transferred from the interaction plate to the appropriate wells of the capture plate and incubated for 2 h at 4° C. The wells were washed six times with 200 μl/well of cooled (4 to 8° C.) 1×DELFIA wash (Wallac-ADL-GmbH, Freiburg), incubated with 100 μl of cooled Europium-streptavidin conjugate (Wallac-ADL-GmbH, Freiburg; diluted 1/1000 with DELFIA assay buffer) for 30 minutes at 4° C., again washed six times with cooled 1×DELFIA wash and, finally, incubated with 200 μl cooled DELFIA enhancement solution (Wallac-ADL-GmbH, Freiburg) for one hour at room temperature before reading the time-resolved europium fluorescence at λex Eu^3+: 340 nm and λem Eu^3+: 613 (615) nm (Wallac Victor^2 1420 Multilabel Counter, Wallac-ADL-GmbH, Freiburg).

[5] = system: T-cell proliferation, lymph node cells of chimeric 0401-IE transgenic mice; conditions: DR4-LN; for IC50: read-out: Immunsupressive assays DR4-LN (IC50); for Immunsupressive assays DR4-LN (Max) % Inhibition: maximal inhibition
Experimental: The compounds were tested as follows to inhibit the proliferative T cell response of antigen-primed lymph node cells from mice carrying a chimeric mouse-human class II transgene with an RA-associated peptide binding site, and lack murine class II molecules (Muller et al., 1990; Woods et al., 1994; Current Protocols in Immunology, Vol. 2, 7.21; Ito et al., 1996). Here, the immunization takes place in vivo, but the inhibition and readout are ex vivo. […] These mice lack murine MHC class II, and thus, all Th responses are channelled through a single human RA-associated MHC class II molecule (Ito et al. 1996). These transgenic mice represent a model for testing human class II antagonists.
1.5×10^5 cells are incubated in 0.2 ml wells of 96-well tissue culture plates in the presence of ovalbumin (30 μg per well—half-maximal stimulatory concentration) and a dilution series of the compound under test (from around 0.1 to 200 uM) in serum free HL-1 medium containing 2 mM L-glutamine and 0.1 g/l Kanamycin for three days. Antigen specific proliferation is measured by 3H-methyl-thymidine (1 μCi/well) incorporation during the last 16 h of culture (Falcioni et al., 1999). Cells are harvested, and 3H incorporation measured using a scintillation counter (TopCount, Wallac Finland).

[6] = target: Cathepsin B1 (EC 3.4.22.1 from bovine spleen) (Bos taurus, UniProt P07688); conditions: Cathepsin B, 4 h
[7] = Stability of compounds in rat blood plasma; format: in vitro ADME
Experimental: as §1, §2, §3

[8] = target: DR4Dw4 (DRA1*0101 DRB1*0401) (Homo sapiens, UniProt P01903+P01911, A100K/A169T/F76Y/I96L/K127E/L162R/M171V/N62H/P40V/Q125Y/R42H/S133A/S149N/S66Y/V115G/V209L/W38E); assay: Competitive binding to MHC-II protein DR4Dw4
Experimental: as §4, §5

[9] = target: DR1 (DRA1*0101 DRB1*0101) (Homo sapiens, UniProt P01903+P01911, A100R/D57E/F55L/F60I/F76Y/I96L/L162R/M171V/P40L/Q125E/R42F/V115G/Y59C); assay: Competitive binding to MHC-II protein DR1; conditions: Protein binding IC50 (nM) 0101, 0101
Experimental: as §4, §5

[10] = Stability of compounds in human blood plasma; format: in vitro ADME
Experimental: as §1, §2, §3

Structure (SMILES)	IC50 [1] [µM]	Stability (Arbitrary units) Cath D 4 h [2] [Arbitrary units]	Stability (Arbitrary units) Mouse 6 h [3] [Arbitrary units]	Stability (Arbitrary units) Mouse 24 h [3] [Arbitrary units]	IC50 [4] [nM]	IC50 [5] [µM]	Stability (Arbitrary units) Cath B 4 h [6] [Arbitrary units]	Stability (Arbitrary units) Rat 6 h [7] [Arbitrary units]	Stability (Arbitrary units) Rat 24 h [7] [Arbitrary units]	IC50 [8] [µM]	IC50 [9] [nM]	Stability (Arbitrary units) Human 6 h [10] [Arbitrary units]	Stability (Arbitrary units) Human 24 h [10] [Arbitrary units]	Immunsupressive assays DR14-LN (Max) % Inhibition [1] [%]	Immunsupressive assays DR4-LN (Max) % Inhibition [5] [%]
CCCC[C@H](NC(=O)[C@@H]1Cc2ccccc2CN1C(=O)[C@H](CCCNC(=N)N)NC(=O)[C@H](CC1CCCCC1)NC(C)=O)C(=O)N(CCOCCO)CCc1ccccc1 [Compound P88] (Ac-[Cha]R[Tic][Nle]-X4)	37	101	125	128	5700	105	94	77	55	10	2000	133	123	–	–
CCCC[C@H](NC(=O)[C@@H]1Cc2ccccc2CN1C(=O)[C@@H](NC(=O)[C@H](CC1CCCCC1)NC(C)=O)C1CCN(C(=N)N)CC1)C(=O)N(CCO)Cc1ccccc1 [Compound P78, Ac-Cha-Gpg-Tic-Nle-N(Bn)CH2CH2OH] (Ac-[Cha][Gly(1-amidinopiperidin-4-yl)][Tic][Nle]-X5)	36	108	90	113	1200	36	100	184	107	2.6	430	73	130	100	97
CCCC[C@H](NC(=O)[C@@H]1Cc2ccccc2CN1C(=O)[C@H](CCCNC(=N)N)NC(=O)[C@H](CC1CCCCC1)NC(C)=O)C(=O)N(CCOCCO)Cc1ccccc1 [Compound P98, Ac-Cha-Arg-Tic-Nle-N(Bn)CH2CH2OCH2CH2OH] (Ac-[Cha]R[Tic][Nle]-X2)	> 200	104	87	54	1300	69	104	71	60	4.7	640	116	121	–	67
CCCC[C@H](NC(=O)[C@@H]1Cc2ccccc2CN1C(=O)[C@@H](NC(=O)[C@H](CC1CCCCC1)NC(C)=O)C1CCN(C(=N)N)CC1)C(=O)N1CCc2ccccc2C1 [Compound P77, Ac-Cha-Gpg-Tic-Nle-tetrahydroisoquinoline] (Ac-[Cha][Gly(1-amidinopiperidin-4-yl)][Tic][Nle]-{Tetrahydroisoquinolin(2-yl)})	14	95	141	181	3600	10	107	129	57	8.7	1900	111	114	99	100
